Experimental findings from patent US10258639B2, “Methods for treating insulin resistance and for sensitizing patients to GLP1 agonist therapy” (Research Development Foundation, priority 2014, dated 2019) are described below.

The subject of the data set is INS1 cells. Briefly: RNAseq of INS1 cells infected with ACREB compared to GFP and stimulated with FSK. Further details: Irs2 RNAseq value, FSK / MafA RNAseq value, FSK / Nr4a2 RNAseq value, FSK / Diras2 RNAseq value, FSK: unit not given here. The settings on record: for Diras2 fold induction / Irs2 fold induction / MafA fold induction / Nr4a2 fold induction: FSK vs control; for Diras2 RNAseq value, FSK / Irs2 RNAseq value, FSK / MafA RNAseq value, FSK / Nr4a2 RNAseq value, FSK: stimulated with FSK. Format: cell-based, rat. Here is the method:
Transcriptome-wide studies were performed to identify CREB target genes that promote insulin expression and secretion. […] INS-1 insulinoma cells were cultured in RPMI (corning cellgro) containing 10% fetal bovine serum (Gemini Bio Products), 100 μg/mL penicillin-streptomycin and 1 mM sodium pyruvate (corning cellgro). MIN6 cells were grown in DMEM (corning cellgro) with 10% FBS, 100 μg/mL penicillin-streptomycin and 70 uM beta-mercaptoethanol. For chronic glucose experiments, cells were maintained under low (2.8 mM) or high (20 mM) glucose for 3 days. Exendin-4 (10 nM), Forskolin (10 μM), KCl (40 mM), DMOG (1 mM) and rapamycin (50 nM) were added to cells as indicated. Cellular cAMP levels were measured using an ELISA kit (Cayman Chemical Company) according to manufacturer's instructions. Total RNAs from cells or primary islets were extracted using Trizol and cDNA was generated using the Transcriptor First Strand cDNA Synthesis kit (Roche Applied Science). cDNAs were quantified on a lightcycler 480 instrument (Roche Applied Science). Gene expression data were presented relative to the expression of housekeeping gene L32 (rat samples) and 18S (mouse and human islets). RNA-Seq libraries were prepared using the mRNA isolation protocol and the NEBNext-Ultra kits from New England Biolabs following the manufacturer's protocols. Libraries were quantitated by Qubit (Invitrogen), and run on a MiSeq instrument with paired-end 75 bp reads using v3 chemistry (Illumina) Data were analyzed by tophat2 and cuffdiff against the mouse mm10 genome build. The GEO accession number for RNAseq studies reported in the paper is GSE60158.

Under “INS1 cells infected with ACREB”, `C=C[C@@]1(C)CC(=O)[C@]2(O)[C@@]3(C)[C@@H](O)CCC(C)(C)[C@@H]3[C@H](O)[C@H](OC(C)=O)[C@@]2(C)O1` [FSK, Forskolin] had a Diras2 fold induction of 1.7 fold, an Irs2 fold induction of 2.3 fold, a MafA fold induction of 3.7 fold and a Nr4a2 fold induction of 6.3 fold. Further, for the setting “INS1 cells infected with ACREB”, the “Diras2 RNAseq value, FSK” value amounted to 109.5; the “Irs2 RNAseq value, FSK” value is 38.8; the “MafA RNAseq value, FSK” value was found to be 90.2; the “Nr4a2 RNAseq value, FSK” value is 5.5. Where the note is “INS1 cells infected with GFP”, the Diras2 fold induction amounted to 11.5 fold, the Irs2 fold induction is reported as 5.6 fold, the MafA fold induction is reported as 8.7 fold and the Nr4a2 fold induction stood at 56.6 fold. For the same compound, under “INS1 cells infected with GFP”, the “Diras2 RNAseq value, FSK” value came out at 519.7; the “Irs2 RNAseq value, FSK” value was determined as 289.9; the “MafA RNAseq value, FSK” value is 474.4; the “Nr4a2 RNAseq value, FSK” value worked out at 106.5.
